Measurements taken from patent US10670605B2, “Cysteine reactive probes and uses thereof” (The Scripps Research Institute, priority 2015, dated 2020).
One block for each compound: values may come before it.

Key:
Experiment in all cases: Competitive isoTOP-ABPP in situ (fragment-treated cells)
Assay type in all cases: cell-based
[1] = target: cysteines in MDA-MB-231 and Ramos cells (Homo sapiens, UniProt O14980)
[2] = target: cysteines in MDA-MB-231 and Ramos cells (Homo sapiens, UniProt P27708); settings: 200 μM, insitu
[3] = target: T1, cysteines in MDA-MB-231 and Ramos cells (Homo sapiens, UniProt Q5JPI3)
T1 sequence (Q5JPI3 1-329): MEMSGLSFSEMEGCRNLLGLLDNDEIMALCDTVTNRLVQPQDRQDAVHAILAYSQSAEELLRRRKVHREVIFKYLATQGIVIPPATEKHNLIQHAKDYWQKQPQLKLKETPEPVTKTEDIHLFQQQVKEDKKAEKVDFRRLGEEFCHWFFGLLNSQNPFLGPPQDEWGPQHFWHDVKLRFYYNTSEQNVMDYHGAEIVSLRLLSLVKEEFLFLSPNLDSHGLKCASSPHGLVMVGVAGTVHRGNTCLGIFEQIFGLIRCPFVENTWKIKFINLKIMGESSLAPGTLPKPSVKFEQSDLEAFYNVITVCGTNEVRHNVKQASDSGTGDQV

[4] = target: T2, cysteines in MDA-MB-231 and Ramos cells (Homo sapiens, UniProt Q86YH6)
T2 sequence (Q86YH6 1-399): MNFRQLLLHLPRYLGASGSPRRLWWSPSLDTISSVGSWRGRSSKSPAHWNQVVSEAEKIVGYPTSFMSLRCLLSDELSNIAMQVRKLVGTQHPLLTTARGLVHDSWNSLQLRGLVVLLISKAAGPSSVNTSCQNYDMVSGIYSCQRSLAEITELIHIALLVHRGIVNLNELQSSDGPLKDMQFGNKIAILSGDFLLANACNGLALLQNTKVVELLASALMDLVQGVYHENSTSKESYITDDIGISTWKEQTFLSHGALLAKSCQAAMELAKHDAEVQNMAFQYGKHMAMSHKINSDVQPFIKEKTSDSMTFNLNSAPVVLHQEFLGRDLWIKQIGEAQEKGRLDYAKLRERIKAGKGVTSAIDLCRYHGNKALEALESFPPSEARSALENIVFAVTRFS

[5] = target: cysteines in MDA-MB-231 and Ramos cells (Homo sapiens, UniProt Q9Y676)
[6] = target: cysteines in MDA-MB-231 and Ramos cells (Homo sapiens, UniProt Q96N67)
[7] = target: cysteines in MDA-MB-231 and Ramos cells (Homo sapiens, UniProt P49189); settings: 200 μM, insitu
[8] = target: T3, cysteines in MDA-MB-231 and Ramos cells (Homo sapiens, UniProt Q15345)
T3 sequence (Q15345 1-812): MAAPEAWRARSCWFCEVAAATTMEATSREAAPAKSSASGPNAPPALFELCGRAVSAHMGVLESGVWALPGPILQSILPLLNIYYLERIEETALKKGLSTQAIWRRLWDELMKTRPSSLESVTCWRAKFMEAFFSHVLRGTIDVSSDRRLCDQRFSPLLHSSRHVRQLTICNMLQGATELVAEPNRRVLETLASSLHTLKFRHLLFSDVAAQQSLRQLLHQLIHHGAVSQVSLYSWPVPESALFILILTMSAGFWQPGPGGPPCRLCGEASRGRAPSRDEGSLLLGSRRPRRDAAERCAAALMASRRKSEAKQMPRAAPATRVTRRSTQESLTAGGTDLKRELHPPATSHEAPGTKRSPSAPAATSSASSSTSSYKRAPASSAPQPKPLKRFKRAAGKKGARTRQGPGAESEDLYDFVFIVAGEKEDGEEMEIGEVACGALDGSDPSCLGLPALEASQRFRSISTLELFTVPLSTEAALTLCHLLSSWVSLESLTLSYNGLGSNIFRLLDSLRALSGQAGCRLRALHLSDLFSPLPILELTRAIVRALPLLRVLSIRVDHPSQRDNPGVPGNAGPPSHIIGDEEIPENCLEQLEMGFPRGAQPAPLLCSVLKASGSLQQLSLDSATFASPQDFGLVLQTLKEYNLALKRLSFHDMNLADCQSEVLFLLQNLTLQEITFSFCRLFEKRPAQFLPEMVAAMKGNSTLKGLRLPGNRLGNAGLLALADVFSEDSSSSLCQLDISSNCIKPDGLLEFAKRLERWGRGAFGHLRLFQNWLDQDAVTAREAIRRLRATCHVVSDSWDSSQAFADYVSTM

[9] = target: cysteines in MDA-MB-231 and Ramos cells (Homo sapiens, UniProt Q14980); settings: 200 μM, insitu, 231

Sequence of cysteines in MDA-MB-231 and Ramos cells (Homo sapiens, UniProt P27708) (P27708 whole entry): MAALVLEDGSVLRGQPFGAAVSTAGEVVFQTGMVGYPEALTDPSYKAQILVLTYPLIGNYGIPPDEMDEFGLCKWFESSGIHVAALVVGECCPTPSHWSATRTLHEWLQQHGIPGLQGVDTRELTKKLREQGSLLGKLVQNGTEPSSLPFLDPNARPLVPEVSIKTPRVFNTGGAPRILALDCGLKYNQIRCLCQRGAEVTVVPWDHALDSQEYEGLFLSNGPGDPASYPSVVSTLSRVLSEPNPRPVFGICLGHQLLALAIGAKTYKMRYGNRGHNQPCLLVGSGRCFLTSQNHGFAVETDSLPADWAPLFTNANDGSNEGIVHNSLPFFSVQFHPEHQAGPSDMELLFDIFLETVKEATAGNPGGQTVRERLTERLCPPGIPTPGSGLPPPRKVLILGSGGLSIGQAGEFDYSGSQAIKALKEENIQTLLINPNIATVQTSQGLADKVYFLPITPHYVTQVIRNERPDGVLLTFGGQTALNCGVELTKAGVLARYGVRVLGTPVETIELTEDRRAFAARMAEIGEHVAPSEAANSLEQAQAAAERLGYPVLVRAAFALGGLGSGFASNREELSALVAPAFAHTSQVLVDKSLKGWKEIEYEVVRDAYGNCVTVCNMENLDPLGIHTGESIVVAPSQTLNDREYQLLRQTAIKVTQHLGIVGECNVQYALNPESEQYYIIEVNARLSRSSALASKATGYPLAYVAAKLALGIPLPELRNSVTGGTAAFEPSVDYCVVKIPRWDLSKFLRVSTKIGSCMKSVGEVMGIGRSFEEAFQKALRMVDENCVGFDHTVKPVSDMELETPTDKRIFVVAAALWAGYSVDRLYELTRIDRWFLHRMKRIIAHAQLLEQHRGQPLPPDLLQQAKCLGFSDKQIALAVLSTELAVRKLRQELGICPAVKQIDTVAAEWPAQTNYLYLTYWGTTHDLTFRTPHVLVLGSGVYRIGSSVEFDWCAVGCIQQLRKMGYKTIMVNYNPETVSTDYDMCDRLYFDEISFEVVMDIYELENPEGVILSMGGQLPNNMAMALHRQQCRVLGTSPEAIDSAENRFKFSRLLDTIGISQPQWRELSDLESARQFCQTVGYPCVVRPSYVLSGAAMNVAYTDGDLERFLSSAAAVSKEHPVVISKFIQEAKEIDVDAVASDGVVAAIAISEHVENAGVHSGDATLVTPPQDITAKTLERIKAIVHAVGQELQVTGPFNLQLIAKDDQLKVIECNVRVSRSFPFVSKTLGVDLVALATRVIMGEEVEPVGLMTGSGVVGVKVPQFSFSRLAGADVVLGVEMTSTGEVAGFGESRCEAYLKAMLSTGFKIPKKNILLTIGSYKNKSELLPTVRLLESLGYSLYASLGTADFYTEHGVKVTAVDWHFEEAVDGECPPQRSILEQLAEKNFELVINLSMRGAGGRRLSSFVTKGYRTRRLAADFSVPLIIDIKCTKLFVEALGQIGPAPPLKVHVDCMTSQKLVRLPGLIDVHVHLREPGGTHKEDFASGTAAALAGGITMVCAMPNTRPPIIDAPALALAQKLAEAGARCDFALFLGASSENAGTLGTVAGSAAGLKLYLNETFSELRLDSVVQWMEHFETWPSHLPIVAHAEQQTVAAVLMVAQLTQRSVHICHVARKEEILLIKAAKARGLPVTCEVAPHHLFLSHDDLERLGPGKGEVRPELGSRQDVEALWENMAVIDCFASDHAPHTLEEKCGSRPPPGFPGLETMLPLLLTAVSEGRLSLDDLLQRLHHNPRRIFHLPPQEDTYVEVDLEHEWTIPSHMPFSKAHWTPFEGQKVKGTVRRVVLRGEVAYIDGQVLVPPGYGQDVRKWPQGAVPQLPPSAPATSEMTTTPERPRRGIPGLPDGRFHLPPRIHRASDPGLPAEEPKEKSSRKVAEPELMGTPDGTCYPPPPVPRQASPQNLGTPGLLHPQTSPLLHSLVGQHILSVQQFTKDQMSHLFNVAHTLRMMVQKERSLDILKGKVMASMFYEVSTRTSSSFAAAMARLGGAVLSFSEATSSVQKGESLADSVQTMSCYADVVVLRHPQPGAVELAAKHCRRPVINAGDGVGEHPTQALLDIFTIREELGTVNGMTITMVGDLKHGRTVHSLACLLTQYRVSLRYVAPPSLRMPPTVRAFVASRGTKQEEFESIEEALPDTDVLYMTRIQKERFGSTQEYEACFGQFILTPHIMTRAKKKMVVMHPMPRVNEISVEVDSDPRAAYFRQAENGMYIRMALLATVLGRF
Sequence of cysteines in MDA-MB-231 and Ramos cells (Homo sapiens, UniProt P49189) (P49189 whole entry): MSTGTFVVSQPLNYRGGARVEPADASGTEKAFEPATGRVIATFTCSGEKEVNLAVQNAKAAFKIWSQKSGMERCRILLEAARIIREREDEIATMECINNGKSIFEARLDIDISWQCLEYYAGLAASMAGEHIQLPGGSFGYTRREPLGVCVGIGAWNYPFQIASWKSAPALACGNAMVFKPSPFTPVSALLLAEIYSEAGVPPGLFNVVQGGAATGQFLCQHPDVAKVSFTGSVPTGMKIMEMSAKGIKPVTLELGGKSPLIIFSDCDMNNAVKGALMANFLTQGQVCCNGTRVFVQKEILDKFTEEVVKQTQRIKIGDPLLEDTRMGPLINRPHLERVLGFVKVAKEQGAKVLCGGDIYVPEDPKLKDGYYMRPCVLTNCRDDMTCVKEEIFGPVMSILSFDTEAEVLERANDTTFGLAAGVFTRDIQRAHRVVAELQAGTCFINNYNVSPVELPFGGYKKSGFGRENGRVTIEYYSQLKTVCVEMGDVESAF
Sequence of cysteines in MDA-MB-231 and Ramos cells (Homo sapiens, UniProt Q96N67) (Q96N67 whole entry): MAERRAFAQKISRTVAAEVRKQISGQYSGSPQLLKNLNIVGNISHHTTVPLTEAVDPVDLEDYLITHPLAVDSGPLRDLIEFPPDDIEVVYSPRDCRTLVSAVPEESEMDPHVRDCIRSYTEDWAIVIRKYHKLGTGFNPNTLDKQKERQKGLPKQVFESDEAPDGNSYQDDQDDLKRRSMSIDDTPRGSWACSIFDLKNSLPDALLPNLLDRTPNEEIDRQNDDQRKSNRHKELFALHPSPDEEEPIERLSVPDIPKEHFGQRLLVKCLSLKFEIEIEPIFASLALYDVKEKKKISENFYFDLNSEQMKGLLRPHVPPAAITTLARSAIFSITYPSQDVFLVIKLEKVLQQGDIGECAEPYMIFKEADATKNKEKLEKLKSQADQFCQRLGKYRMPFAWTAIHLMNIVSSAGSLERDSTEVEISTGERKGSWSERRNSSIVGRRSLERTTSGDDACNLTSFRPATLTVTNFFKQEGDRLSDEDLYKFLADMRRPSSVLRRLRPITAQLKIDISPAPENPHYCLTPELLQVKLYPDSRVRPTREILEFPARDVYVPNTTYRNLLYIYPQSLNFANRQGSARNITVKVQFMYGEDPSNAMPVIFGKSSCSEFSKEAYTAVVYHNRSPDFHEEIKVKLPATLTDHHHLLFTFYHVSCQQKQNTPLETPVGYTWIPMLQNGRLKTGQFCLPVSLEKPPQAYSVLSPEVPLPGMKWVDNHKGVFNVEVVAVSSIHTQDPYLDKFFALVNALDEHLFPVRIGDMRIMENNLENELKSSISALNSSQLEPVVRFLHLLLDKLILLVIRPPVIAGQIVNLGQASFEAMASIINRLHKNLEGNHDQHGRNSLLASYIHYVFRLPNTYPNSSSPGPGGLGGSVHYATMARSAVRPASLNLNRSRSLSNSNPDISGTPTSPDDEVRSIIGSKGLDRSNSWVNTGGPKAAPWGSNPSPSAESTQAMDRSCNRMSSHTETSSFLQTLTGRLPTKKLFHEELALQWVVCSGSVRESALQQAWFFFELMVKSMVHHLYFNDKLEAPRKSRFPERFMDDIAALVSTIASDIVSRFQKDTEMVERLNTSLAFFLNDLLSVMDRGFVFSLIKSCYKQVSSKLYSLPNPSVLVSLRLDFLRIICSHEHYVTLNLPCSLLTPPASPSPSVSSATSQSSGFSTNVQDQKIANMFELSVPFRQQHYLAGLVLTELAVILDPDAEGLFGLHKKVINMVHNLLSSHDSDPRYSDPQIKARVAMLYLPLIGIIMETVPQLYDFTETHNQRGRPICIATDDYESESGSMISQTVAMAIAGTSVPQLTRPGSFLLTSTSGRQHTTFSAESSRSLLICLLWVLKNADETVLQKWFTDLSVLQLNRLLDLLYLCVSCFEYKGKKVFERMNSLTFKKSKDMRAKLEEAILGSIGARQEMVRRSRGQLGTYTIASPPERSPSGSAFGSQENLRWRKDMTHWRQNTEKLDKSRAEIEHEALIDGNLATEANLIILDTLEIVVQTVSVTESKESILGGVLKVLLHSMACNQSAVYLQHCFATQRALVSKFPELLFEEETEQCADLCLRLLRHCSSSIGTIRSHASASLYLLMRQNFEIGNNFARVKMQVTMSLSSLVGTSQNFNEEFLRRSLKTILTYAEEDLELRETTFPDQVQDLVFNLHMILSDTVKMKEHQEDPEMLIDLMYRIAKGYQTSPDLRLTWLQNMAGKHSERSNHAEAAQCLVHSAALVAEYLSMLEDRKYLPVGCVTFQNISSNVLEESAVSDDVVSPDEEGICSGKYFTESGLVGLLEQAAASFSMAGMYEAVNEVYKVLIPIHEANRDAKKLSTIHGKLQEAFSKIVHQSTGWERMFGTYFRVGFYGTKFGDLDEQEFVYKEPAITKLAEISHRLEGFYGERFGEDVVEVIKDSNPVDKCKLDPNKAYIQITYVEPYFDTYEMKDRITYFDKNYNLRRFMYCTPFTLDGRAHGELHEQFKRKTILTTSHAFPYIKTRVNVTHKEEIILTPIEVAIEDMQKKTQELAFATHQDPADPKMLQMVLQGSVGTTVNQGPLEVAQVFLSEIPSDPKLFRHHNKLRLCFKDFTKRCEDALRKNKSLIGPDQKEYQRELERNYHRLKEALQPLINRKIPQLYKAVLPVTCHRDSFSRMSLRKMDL

Structure (SMILES): COc1ccc(C2CC(c3cccs3)=NN2C(=O)CCl)cc1 (stereo not shown) [compound 4]
isoTOP-ABPP reactivity O14980_0528 XPO1 ([1]; 100 μM in situ 231): 1.9 | isoTOP-ABPP reactivity Q86YH6_C71 PDSS2 ([4]; 100 μM in situ 231): 20.0 | isoTOP-ABPP reactivity Q96N67_C2125 DOCK7 ([6]; 100 μM in situ 231): 4.1 | isoTOP-ABPP reactivity Q9Y676_C128 MRPS18B ([5]; 100 μM in situ 231): 2.3

Structure (SMILES): COc1cc2c(cc1OC)CN(C(=O)CCl)CC2 [compound 8]
isoTOP-ABPP reactivity P27708_C73 CAD [2]; 231: 20.0 | isoTOP-ABPP reactivity Q96N67_C2125 DOCK7 ([6]; 200 μM, insitu, 231): 5.4 | isoTOP-ABPP reactivity Q9Y676_C128 MRPS18B ([5]; 200 μM, insitu, 231): 1.0

Structure (SMILES): O=C(CCl)NC(=O)NC12CC3CC(CC(C3)C1)C2 [compound 12]
isoTOP-ABPP ratio P49189_C288 [7]; 231: 1.8 | isoTOP-ABPP ratio, cysteine Q14980_C961 [9]: 20.0 | isoTOP-ABPP ratio Q86YH6_C71 ([4]; 200 μM, insitu, 231): 20.0 | isoTOP-ABPP ratio Q9Y676_C128 ([5]; 200 μM, insitu, 231): 1.4

Structure (SMILES): O=C(CCl)NCCc1c[nH]c2ccccc12 [compound 13]
isoTOP-ABPP ratio O14980_C528 ([1]; 200 μM, insitu, 231): 1.1 | isoTOP-ABPP ratio O14980_C528 ([1]; 200 μM, insitu, ramos): 1.1 | isoTOP-ABPP ratio, cysteine P27708_C73 ([2]; ramos): 5.0 | isoTOP-ABPP ratio P49189_C288 ([7]; ramos): 12.0 | isoTOP-ABPP ratio, cysteine Q14980_C961 [9]: 2.2 | isoTOP-ABPP ratio, cysteine Q15345_C297 ([8]; 200 μM, insitu, 231): 1.6 | isoTOP-ABPP ratio, cysteine Q5JPI3_C308 ([3]; 200 μM, insitu, 231): 1.1 | isoTOP-ABPP ratio, cysteine Q5JPI3_C308 ([3]; 200 μM, insitu, ramos): 1.7 | isoTOP-ABPP ratio Q86YH6_C71 ([4]; 200 μM, insitu, 231): 1.2 | isoTOP-ABPP ratio Q86YH6_C71 ([4]; 200 μM, insitu, ramos): 1.8

Structure (SMILES): O=C(CCl)NC12CC3CC(CC(C3)C1)C2 [compound 21]
isoTOP-ABPP ratio O14980_C528 ([1]; 200 μM, insitu, 231): 0.8 | isoTOP-ABPP ratio, cysteine P27708_C73 [2]; 231: 0.6 | isoTOP-ABPP ratio P49189_C288 [7]; 231: 1.0 | isoTOP-ABPP ratio, cysteine Q14980_C961 [9]: 3.7 | isoTOP-ABPP ratio, cysteine Q15345_C297 ([8]; 200 μM, insitu, 231): 1.1 | isoTOP-ABPP ratio, cysteine Q5JPI3_C308 ([3]; 200 μM, insitu, 231): 0.9 | isoTOP-ABPP ratio Q86YH6_C71 ([4]; 200 μM, insitu, 231): 2.1 | isoTOP-ABPP ratio Q9Y676_C128 ([5]; 200 μM, insitu, 231): 1.5

Structure (SMILES): CC(C)CCOCCNC(=O)CCl [compound 27]
isoTOP-ABPP ratio P27708_C73 [2]; 231: 0.5 | isoTOP-ABPP ratio Q14980_C961 [9]: 2.4 | isoTOP-ABPP ratio Q5JPI3_C308 ([3]; 200 μM, insitu, 231): 0.7 | isoTOP-ABPP ratio Q86YH6_C71 ([4]; 200 μM, insitu, 231): 1.3 | isoTOP-ABPP ratio Q96N67_C2125 ([6]; 200 μM, insitu, 231): 0.9 | isoTOP-ABPP ratio Q9Y676_C128 ([5]; 200 μM, insitu, 231): 1.0

Structure (SMILES): C=CC(=O)N(Cc1cccnc1)c1cc(C(F)(F)F)cc(C(F)(F)F)c1 [compound 31]
isoTOP-ABPP ratio Q14980_C961 [9]: 1.1 | isoTOP-ABPP ratio Q15345_C297 ([8]; 200 μM, insitu, 231): 0.9 | isoTOP-ABPP ratio Q96N67_C2125 ([6]; 200 μM, insitu, 231): 0.8

Structure (SMILES): Cc1ccc(C=C(C#N)C(=O)NCCN2CCOCC2)cc1 [compound 41]
isoTOP-ABPP ratio O14980_C528 ([1]; 200 μM, insitu, 231): 0.9 | isoTOP-ABPP ratio P27708_C73 [2]; 231: 0.7 | isoTOP-ABPP ratio P49189_C288 [7]; 231: 0.8 | isoTOP-ABPP ratio Q15345_C297 ([8]; 200 μM, insitu, 231): 0.8 | isoTOP-ABPP ratio Q5JPI3_C308 ([3]; 200 μM, insitu, 231): 0.7 | isoTOP-ABPP ratio Q86YH6_C71 ([4]; 200 μM, insitu, 231): 0.9 | isoTOP-ABPP ratio Q96N67_C2125 ([6]; 200 μM, insitu, 231): 0.7

Structure (SMILES): O=C(CCl)Nc1cccc2ncccc12 [compound 51]
isoTOP-ABPP ratio O14980_C528 ([1]; 200 μM, insitu, 231): 1.1 | isoTOP-ABPP ratio Q9Y676_C128 ([5]; 200 μM, insitu, 231): 1.0

The remaining lines, values ahead:

isoTOP-ABPP reactivity O14980_0528 XPO1 ([1]; 200 μM, insitu, 231): 20.0 | isoTOP-ABPP reactivity P27708_C73 CAD [2]; 231: 3.1 | isoTOP-ABPP reactivity Q5JPI3_C308 C3orf38 ([3]; 200 μM, insitu, 231): 2.9 | isoTOP-ABPP reactivity Q86YH6_C71 PDSS2 ([4]; 200 μM, insitu, 231): 20.0 | isoTOP-ABPP reactivity Q9Y676_C128 MRPS18B ([5]; 200 μM, insitu, 231): 10.2
Structure (SMILES): COc1ccc2c(c1)CCCN2C(=O)CCl [compound 2]

isoTOP-ABPP reactivity P49189_C288 ALDH9A1 [7]; 231: 20.0
Structure (SMILES): O=C(CCl)N1CCC(Cc2ccccc2)CC1 [compound 9]

isoTOP-ABPP ratio O14980_C528 ([1]; 200 μM, insitu, 231): 1.3 | isoTOP-ABPP ratio O14980_C528 ([1]; 200 μM, insitu, ramos): 0.7 | isoTOP-ABPP ratio P49189_C288 [7]; 231: 20.0 | isoTOP-ABPP ratio Q86YH6_C71 ([4]; 200 μM, insitu, 231): 20.0 | isoTOP-ABPP ratio Q9Y676_C128 ([5]; 200 μM, insitu, 231): 2.9
Structure (SMILES): O=C(CCl)N1CCN(S(=O)(=O)c2ccccc2F)CC1 [compound 10]

isoTOP-ABPP ratio O14980_C528 ([1]; 100 μM in situ 231): 0.7 | isoTOP-ABPP ratio, cysteine Q15345_C297 ([8]; 100 μM in situ 231): 1.1 | isoTOP-ABPP ratio, cysteine Q5JPI3_C308 ([3]; 100 μM in situ 231): 1.0 | isoTOP-ABPP ratio Q86YH6_C71 ([4]; 100 μM in situ 231): 1.0 | isoTOP-ABPP ratio Q9Y676_C128 ([5]; 100 μM in situ 231): 0.8
Structure (SMILES): Cn1cc(S(=O)(=O)N2CCOCC2)cc1C(=O)NC(=O)CCl [compound 11]

isoTOP-ABPP ratio O14980_C528 ([1]; 200 μM, insitu, ramos): 1.1 | isoTOP-ABPP ratio P27708_C73 ([2]; ramos): 1.8 | isoTOP-ABPP ratio Q5JPI3_C308 ([3]; 200 μM, insitu, ramos): 1.3 | isoTOP-ABPP ratio Q86YH6_C71 ([4]; 200 μM, insitu, ramos): 1.1
Structure (SMILES): O=C(CCl)N1CCN(CC(=O)N2CCOCC2)CC1 [compound 29]

isoTOP-ABPP ratio O14980_C528 ([1]; 200 μM, insitu, 231): 2.1 | isoTOP-ABPP ratio P49189_C288 [7]; 231: 0.7 | isoTOP-ABPP ratio Q14980_C961 [9]: 2.6 | isoTOP-ABPP ratio Q15345_C297 ([8]; 200 μM, insitu, 231): 1.4 | isoTOP-ABPP ratio Q96N67_C2125 ([6]; 200 μM, insitu, 231): 1.5 | isoTOP-ABPP ratio Q9Y676_C128 ([5]; 200 μM, insitu, 231): 1.0
Structure (SMILES): C=CC(=O)Nc1cc(F)c(N2CCN(C(=O)OC(C)(C)C)CC2)c(F)c1 [compound 38]

isoTOP-ABPP ratio P49189_C288 [7]; 231: 20.0 | isoTOP-ABPP ratio Q86YH6_C71 ([4]; 200 μM, insitu, 231): 20.0 | isoTOP-ABPP ratio Q9Y676_C128 ([5]; 200 μM, insitu, 231): 2.0
Structure (SMILES): CC1CCc2ccccc2N1C(=O)CCl (stereo not shown) [compound 45]
